Experimental data: patent publication US8859587B2, “(2E)-3-phenyl-N-[2,2,2-Trifluoro-1-[[8-quinolineamino)thiomethyl]amino]ethyl]-2-acrylamide and pharmaceutical uses thereof” (Chinese PLA General Hospital, priority 2010, dated 2014)

Test system: cardiac muscle cells under anoxia
Test: Cardiomyocyte apoptosis induced by anoxia, high connotation screening (HCS Reader)
Assay type: cell-based, Wistar rats
Conditions: for Filament strength (actin filament) / Nucleus area / Nucleus strength / Short/long axis ratio of filament / cell count increase in comparison with the anoxia group / light flux / Cell count / Transmembrane potential (mitochondrial): anoxia 16 h; for Cell count / Transmembrane potential (mitochondrial): relative to control group = 1
Protocol: neonate Wistar rats, rat age: within 24 h, male and female
cardiac muscle cells were separated and cultured by referring to the method of differential adhesion, Wistar neonate […] newborn within 24 h were used, sterilized at skin of ventrum with iodine tincture and ethanol, subjected to thoracotomy using scissors at subxiphoid median line with a deviation to left, heart was taken out after slant thoracotomy and placed in PBS precooled with ice; the heart was softly blown and beaten with 0.01M PBS to remove blood cells and other tissues, then cut into pieces with 0.5 mm^3 size, washed with 0.01M PBS repeatedly for 2-3 times; the pieces were placed in conical flask, added with 4 ml of 0.125% pancretin, 1 ml of 0.1% collagenase II (final concentrations separately being 0.1% and 0.02%), shaken in 37° C. water bath for 10 min, the supernatant was discarded; then 4 ml of 0.125% pancretin and 1 ml of 0.1% collagenase II again, shaken in 37° C. water bath for digestion for 10 min, the supernatant was sucked and transferred to a centrifuge tube, and the supernatant was added with DMEM containing 10% FBS to terminate digestion; the step of shaking and digestion in water bath was repeated for 3-4 times, until the tissue pieces were completely digested; the collected cell suspension was centrifuged under 1000 rpm for 10 min, the supernatant was removed, then a culture medium was added for resuspension; the resuspended cells were inoculated in a cell culture flask, placed in CO2 incubator at 37° C. for incubation for 1.5 h, then the culture medium was sucked out, countered under microscope, then DMEM culture medium containing 10% FBS was used to adjust cell density, inoculated in an amount of 1×10^4 to a 96-well plate, placed in 5% CO2 incubator at 37° C. for 24 h, then half medium was replaced, a culture medium containing 0.1% Brdu was supplementally added; then the medium was replaced once per 48 h, and primary cardiac muscle cells were obtained after 4 days of cultivation.
1. The separated cardiac muscle cells were inoculated to a 96-wells plate, 10^4 cells per well, and the volume of each well was 100 μl (marginal wells were filled with sterile PBS). After being cultivated in 5% CO2 and 37° C. incubator for 4 d, Formula I was separated added at different concentrations (5 μM, 10 μM, 20 μM) and treated for 30 min, then placed in a sealed 37° C. anoxia incubator (O2/CO2, 5:95) and continuously incubated for 16 h, and at the same time, anoxia control wells and the normal control wells were set and cultivated in 5% CO2, 37° C. incubator for 16 h.
2. It was 30 min before the anoxia incubation was finished, each well was supplemented with 50 μl of culture medium and 50 μl of Mitotracker/Hoechst solution, and the cells were continuously incubated at 37° C. for 30 min.
3. 100 μl of the fixing solution was preheated to 37° C. and separately added to each culture well, without sucking out culture medium, and incubation was performed under ventilation at room temperature for 10 min.
4. The solution of each well was sucked out (the plate could be struck), washed with 1× Wash Buffer (100 uL/well) once. Carefulness was kept during operation and washing procedure, and slow sucking and adding liquid to maintain cell adhesion and integrity.
5. Wash Buffer was sucked out, 1× penetrating buffer solution (100 uL/well) was added, incubated at room temperature for 15 min.
6. The penetrating buffer solution in each well was sucked out, washed once with 100 μL/well of 1× Wash Buffer.
7. The Wash Buffer in each well was sucked out (the plate could be struck), each well was added with 50 μl of Alexa Fluor 488 Phalloidin Solution, incubated at room temperature in dark for 30 min.
8. The Alexa Fluor 488 Phalloidin solution in each well was sucked out, washed with 1× Wash Buffer (100 μl/well) twice, and added with 1× Wash Buffer (100 μl/well).
9. The edge of plate was covered with a sealing membrane (for prevention of drying), and assayed with HCS Reader. […]

With `O=C(/C=C/c1ccccc1)NC(NC(=S)Nc1cccc2cccnc12)C(Cl)(Cl)Cl` (stereo not shown) [Compound of Formula I, (2E)-3-phenyl-N-[2,2,2-trichloro-1-[[(8-quinolylamino)thiomethyl]amino]ethyl]-2-acrylamide] the “Filament strength (actin filament)” value (5 μM) was 498.03 ± 76.67, the Nucleus area (5 μM) was 109.90 ± 3.97 and the Nucleus strength (5 μM) was 124.90 ± 2.25. For the same molecule, the “Short/long axis ratio of filament” value (5 μM) was 0.75 ± 0.02, the “cell count increase in comparison with the anoxia group” value (“cell count increase in comparison” for short) (5 μM) was 17.06% and the light flux (5 μM) was 1201.92 ± 29.95. The Cell count (5 μM) was 88.57% ± 7.64%, the “Transmembrane potential (mitochondrial)” value (5 μM) was 96.69% ± 5.06% and the “Filament strength (actin filament)” value (10 μM) was 503.64 ± 49.23. For the same molecule, the Nucleus area (10 μM) was 107.43 ± 7.77, the Nucleus strength (10 μM) was 123.21 ± 2.71 and the “Short/long axis ratio of filament” value (10 μM) was 0.74 ± 0.01. The “cell count increase in comparison” value (10 μM) was 26.52%, the light flux (10 μM) was 1166.12 ± 91.06 and the Cell count (10 μM) was 98.03% ± 16.24. For the same molecule, the “Transmembrane potential (mitochondrial)” value (10 μM) was 97.19% ± 2.82^, the “Filament strength (actin filament)” value (20 μM) was 471.83 ± 69.38 and the Nucleus area (20 μM) was 111.90 ± 10.76. The Nucleus strength (20 μM) was 121.40 ± 2.24, the “Short/long axis ratio of filament” value (20 μM) was 0.74 ± 0.02 and the “cell count increase in comparison” value (20 μM) was 30.22%. The light flux (20 μM) was 1214.09 ± 107.59, the Cell count (20 μM) was 101.73% ± 22.42% and the “Transmembrane potential (mitochondrial)” value (20 μM) was 99.40% ± 2.80%. The “effect on indexes of cardiac muscle cells under anoxia (nucleus area, nucleus strength, light flux, actin filament, transmembrane potential, cell count)” value (highly anoxia condition) was “significantly improve the above indexes”.
